In ChEMBL document CHEMBL3272164, “Compounds with gastric antisecretory activity. 1. Phenoxyalkylamines” (J Med Chem, 1977):

tested on: Rattus norvegicus; test: Inhibition of histamine-induced gastric acid secretion in rat in perfused stomach preparation at 5 mg/kg, iv after 15 mins; type: functional; conditions: 0.25 h

Question: How did the inhibition in vivo at 5 mg/kg turn out when CCCCCCc1ccccc1OCCN(CC)CC was run?
Answer: The inhibition in vivo at 5 mg/kg was 48%.

Question: CCCCCCCc1ccccc1OCCN(CC)CC was tested. Which inhibition in vivo at 5 mg/kg did it give?
Answer: Its inhibition in vivo at 5 mg/kg is 82%.

Question: Which inhibition in vivo at 5 mg/kg does the source give for CCCCCCCCCc1ccccc1OCCN(CC)CC here?
Answer: The inhibition in vivo at 5 mg/kg was 25%.

Question: For CCN(CC)CCOc1ccccc1CCCC(C)(C)C, which inhibition in vivo at 5 mg/kg is on record?
Answer: Its inhibition in vivo at 5 mg/kg is 50%.

Question: CCN(CC)CCOc1ccccc1CCC1CCCCC1 was tested. Which inhibition in vivo at 5 mg/kg did it give?
Answer: The inhibition in vivo at 5 mg/kg was 74%.

Question: With CCN(CC)CCOc1ccc(F)cc1CCC1CCCCC1 as the molecule, how does the inhibition in vivo at 5 mg/kg read?
Answer: The inhibition in vivo at 5 mg/kg was 95%.

Question: CCN(CC)CCOc1ccc(Cl)cc1CCC1CCCCC1 was tested. Which inhibition in vivo at 5 mg/kg did it give?
Answer: The inhibition in vivo at 5 mg/kg was 75%.

Question: CCN(CC)CCOc1ccc(OC)cc1CCC1CCCCC1 was tested. Which inhibition in vivo at 5 mg/kg did it give?
Answer: The inhibition in vivo at 5 mg/kg was 78%.

Question: With CCCCCCCc1cc(C)ccc1OCCN(CC)CC as the molecule, how does the inhibition in vivo at 5 mg/kg read?
Answer: The inhibition in vivo at 5 mg/kg was 61%.

Question: CCN(CC)CCOc1ccc(C(C)=O)cc1CCC1CCCCC1 was tested. Which inhibition in vivo at 5 mg/kg did it give?
Answer: The inhibition in vivo at 5 mg/kg was 36%.

Question: How did the inhibition in vivo at 5 mg/kg turn out when CN(C)CCOc1ccccc1CCC1CCCCC1 was run?
Answer: The inhibition in vivo at 5 mg/kg was 29%.

Question: With CN(C)CCCOc1ccccc1CCC1CCCCC1 as the molecule, how does the inhibition in vivo at 5 mg/kg read?
Answer: The inhibition in vivo at 5 mg/kg was 42%.

Question: How did the inhibition in vivo at 5 mg/kg turn out when CCN(CC)CCCOc1ccccc1CCC1CCCCC1 was run?
Answer: Its inhibition in vivo at 5 mg/kg is 66%.

Question: For c1ccc(OCCN2CCCC2)c(CCC2CCCCC2)c1, which inhibition in vivo at 5 mg/kg is on record?
Answer: The inhibition in vivo at 5 mg/kg was 95%.

Question: For c1ccc(OCCN2CCOCC2)c(CCC2CCCCC2)c1, which inhibition in vivo at 5 mg/kg is on record?
Answer: Its inhibition in vivo at 5 mg/kg is 10%.

Question: Which inhibition in vivo at 5 mg/kg does the source give for CCCN(CCC)CCOc1ccccc1CCC1CCCCC1 here?
Answer: Its inhibition in vivo at 5 mg/kg is 62%.

Question: How did the inhibition in vivo at 5 mg/kg turn out when CC(C)N(CCOc1ccccc1CCC1CCCCC1)C(C)C was run?
Answer: The inhibition in vivo at 5 mg/kg was 32%.

Question: With CN1CCN(CCOc2ccccc2CCC2CCCCC2)CC1 as the molecule, how does the inhibition in vivo at 5 mg/kg read?
Answer: The inhibition in vivo at 5 mg/kg was 0%.

Question: How did the inhibition in vivo at 5 mg/kg turn out when c1ccc(N2CCN(CCOc3ccccc3CCC3CCCCC3)CC2)cc1 was run?
Answer: Its inhibition in vivo at 5 mg/kg is 0%.

Question: For CC(C)CN1CCN(CCOc2ccccc2CCC2CCCCC2)CC1, which inhibition in vivo at 5 mg/kg is on record?
Answer: The inhibition in vivo at 5 mg/kg was 51%.

Question: How did the inhibition in vivo at 5 mg/kg turn out when CN1CCCCC1COc1ccccc1CCC1CCCCC1 (centres undefined) was run?
Answer: Its inhibition in vivo at 5 mg/kg is 100%.

Question: CCN1CCCC(COc2ccccc2CCC2CCCCC2)C1 (centres undefined) was tested. Which inhibition in vivo at 5 mg/kg did it give?
Answer: The inhibition in vivo at 5 mg/kg was 57%.

Question: For CCCCC/C=C/c1ccccc1OCCN1CCCC1, which inhibition in vivo at 5 mg/kg is on record?
Answer: The inhibition in vivo at 5 mg/kg was 71%.

Question: With CCCCCC/C=C/c1ccccc1OCCN1CCCC1 as the molecule, how does the inhibition in vivo at 5 mg/kg read?
Answer: The inhibition in vivo at 5 mg/kg was 50%.

tested on: Rattus norvegicus; test: Inhibition of histamine-induced gastric acid secretion in iv dosed rat in perfused stomach preparation measured after 15 mins; type: functional; conditions: 0.25 h

Question: C(=C\C12CC3CC(CC(C3)C1)C2)/c1ccccc1OCCN1CCCC1.Cl was tested. Which ED50 did it give?
Answer: Its ED50 is 0.018 mg/kg.

Question: Which ED50 does the source give for CN/C(=N\CCSCc1nc[nH]c1C)NC#N [CIMETIDINE] here?
Answer: The ED50 was 0.3 mg/kg.

tested on: Rattus norvegicus; test: Inhibition of histamine-induced gastric acid secretion in rat in perfused stomach preparation at 1.25 mg/kg, iv after 15 mins; type: functional; conditions: 0.25 h

Question: For c1ccc(OCCN2CCCC2)c(CCC23CC4CC(CC(C4)C2)C3)c1, which inhibition in vivo at 1.25 mg/kg is on record?
Answer: The inhibition in vivo at 1.25 mg/kg was 100%.

Question: With CCN(CC)CCOc1ccccc1/C=C/C1CCCCC1 as the molecule, how does the inhibition in vivo at 1.25 mg/kg read?
Answer: The inhibition in vivo at 1.25 mg/kg was 82%.

Question: C(=C\C1CCCCC1)/c1ccccc1OCCN1CCCC1 was tested. Which inhibition in vivo at 1.25 mg/kg did it give?
Answer: Its inhibition in vivo at 1.25 mg/kg is 90%.

tested on: Rattus norvegicus; test: Inhibition of histamine-induced gastric acid secretion in po dosed rat in ligated stomach preparation administered 1 hr prior to the ligation of the pylorus; type: functional; conditions: not given

Question: For C(=C\C12CC3CC(CC(C3)C1)C2)/c1ccccc1OCCN1CCCC1.Cl, which ED50 is on record?
Answer: The ED50 was 1.5 mg/kg.

Question: Which ED50 does the source give for CN/C(=N\CCSCc1nc[nH]c1C)NC#N [CIMETIDINE] here?
Answer: The ED50 was 21.5 mg/kg.

tested on: Rattus norvegicus; test: Toxicity in rat at 5 mg/kg, iv; type: organism-based; set-up: dose 5 mg/kg, route intravenous; conditions: in vivo

Question: How did the Activity turn out when CCCCCCCc1ccccc1OCCNCC.O=C(O)C(=O)O was run?
Answer: The Activity was “Toxic”.

Question: CCCCCCCc1ccccc1OCCCNC(C)C.O=C(O)C(=O)O was tested. Which Activity did it give?
Answer: The Activity was “Toxic”.

tested on: Rattus norvegicus; test: Inhibition of histamine-induced gastric acid secretion in rat in perfused stomach preparation at 2.5 mg/kg, iv after 15 mins; type: functional; conditions: 0.25 h

Question: For c1ccc(OCCN2CCCCC2)c(CCC2CCCCC2)c1, which inhibition in vivo at 2.5 mg/kg is on record?
Answer: Its inhibition in vivo at 2.5 mg/kg is 50%.

Question: Which inhibition in vivo at 2.5 mg/kg does the source give for CN1CCCCC1COc1ccccc1CCC1CCCCC1 (centres undefined) here?
Answer: The inhibition in vivo at 2.5 mg/kg was 64%.

tested on: Rattus norvegicus; test: Inhibition of histamine-induced gastric acid secretion in rat in perfused stomach preparation at 0.078 mg/kg, iv after 15 mins; type: functional; conditions: 0.25 h

Question: Which inhibition in vivo at 0.078 mg/kg does the source give for c1ccc(OCCN2CCCC2)c(CCC23CC4CC(CC(C4)C2)C3)c1 here?
Answer: The inhibition in vivo at 0.078 mg/kg was 83%.

Question: Which inhibition in vivo at 0.078 mg/kg does the source give for C(=C\C12CC3CC(CC(C3)C1)C2)/c1ccccc1OCCN1CCCC1.Cl here?
Answer: Its inhibition in vivo at 0.078 mg/kg is 97%.

Question: For C(=C/C12CC3CC(CC(C3)C1)C2)/c1ccccc1OCCN1CCCC1, which inhibition in vivo at 0.078 mg/kg is on record?
Answer: Its inhibition in vivo at 0.078 mg/kg is 65%.

Question: CN(C)CCOc1ccccc1/C=C/C12CC3CC(CC(C3)C1)C2 (trans isomer) was tested. Which inhibition in vivo at 0.078 mg/kg did it give?
Answer: The inhibition in vivo at 0.078 mg/kg was 52%.
